Measured values from PubChem BioAssay (NCI).
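Test compounds were applied to cells in 96-well plates for 48 hours at 5 doses. Abbreviation: GI50, concentration required for 50% inhibition of growth. TGI: concentration producing complete growth inhibition.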

Tests used:
Assay in all cases: DTP human tumour cell line panel, 48 h
HCC-2998 colon = tested on: HCC-2998 colon
BT-549 breast = tested on: BT-549 breast
A549 NSCLC = tested on: A549 NSCLC
SF-268 CNS = tested on: SF-268 CNS
IGROV1 ovarian = tested on: IGROV1 ovarian
HOP-62 NSCLC = tested on: HOP-62 NSCLC
MDA-MB-435 = tested on: MDA-MB-435
CAKI-1 renal = tested on: CAKI-1 renal
SK-MEL-5 melanoma = tested on: SK-MEL-5 melanoma
OVCAR-8 ovarian = tested on: OVCAR-8 ovarian
NCI-H522 lung = tested on: NCI-H522 lung
OVCAR-3 ovarian = tested on: OVCAR-3 ovarian
SF-295 CNS = tested on: SF-295 CNS
UO-31 renal = tested on: UO-31 renal
PC-3 prostate = tested on: PC-3 prostate
OVCAR-4 ovarian = tested on: OVCAR-4 ovarian
SN12C renal = tested on: SN12C renal
NCI/ADR-RES ovarian = tested on: NCI/ADR-RES ovarian
UACC-62 melanoma = tested on: UACC-62 melanoma
LOX IMVI melanoma = tested on: LOX IMVI melanoma
MDA-MB-231 breast = tested on: MDA-MB-231 breast
MCF7 breast = tested on: MCF7 breast
HL-60(TB) leukemia = tested on: HL-60(TB) leukemia
UACC-257 melanoma = tested on: UACC-257 melanoma
U251 CNS = tested on: U251 CNS
RPMI-8226 leukemia = tested on: RPMI-8226 leukemia
SR leukemia = tested on: SR leukemia
HOP-92 NSCLC = tested on: HOP-92 NSCLC
HT29 colon = tested on: HT29 colon
KM12 colon = tested on: KM12 colon
SF-539 CNS = tested on: SF-539 CNS
A498 renal = tested on: A498 renal
SNB-75 CNS = tested on: SNB-75 CNS
OVCAR-5 ovarian = tested on: OVCAR-5 ovarian
SK-OV-3 ovarian = tested on: SK-OV-3 ovarian
HCT-116 colon = tested on: HCT-116 colon
RXF 393 renal = tested on: RXF 393 renal
MOLT-4 leukemia = tested on: MOLT-4 leukemia
DU-145 prostate = tested on: DU-145 prostate
TK-10 renal = tested on: TK-10 renal
SK-MEL-2 melanoma = tested on: SK-MEL-2 melanoma
T-47D breast = tested on: T-47D breast
K-562 leukemia = tested on: K-562 leukemia
CCRF-CEM leukemia = tested on: CCRF-CEM leukemia
MALME-3M melanoma = tested on: MALME-3M melanoma
NCI-H226 lung = tested on: NCI-H226 lung
HS 578T breast = tested on: HS 578T breast
NCI-H460 lung = tested on: NCI-H460 lung
SK-MEL-28 melanoma = tested on: SK-MEL-28 melanoma
SNB-19 CNS = tested on: SNB-19 CNS
EKVX NSCLC = tested on: EKVX NSCLC
M14 melanoma = tested on: M14 melanoma
SW-620 colon = tested on: SW-620 colon
NCI-H23 lung = tested on: NCI-H23 lung
786-0 renal = tested on: 786-0 renal
COLO 205 colon = tested on: COLO 205 colon
ACHN renal = tested on: ACHN renal
HCT-15 colon = tested on: HCT-15 colon
MDA-N = tested on: MDA-N

NC(=O)c1ccc2nc(-c3ccc(C4(N)CCC4)cc3)c(-c3ccccc3)n2n1
GI50 (HCC-2998 colon): 13 µM
TGI (HCC-2998 colon): 31.7 µM
GI50 (BT-549 breast): 1.28 µM
TGI (BT-549 breast): 14.5 µM
GI50 (A549 NSCLC): 11.7 µM
TGI (A549 NSCLC): 28.5 µM
GI50 (SF-268 CNS): 13.1 µM
TGI (SF-268 CNS): 30.1 µM
GI50 (IGROV1 ovarian): 0.0886 µM
TGI (IGROV1 ovarian): 10.7 µM
GI50 (HOP-62 NSCLC): 11.6 µM
TGI (HOP-62 NSCLC): 27.7 µM
GI50 (MDA-MB-435): 11.8 µM
TGI (MDA-MB-435): 24.4 µM
GI50 (CAKI-1 renal): 10.3 µM
TGI (CAKI-1 renal): 23.9 µM
GI50 (SK-MEL-5 melanoma): 10.9 µM
TGI (SK-MEL-5 melanoma): 23.3 µM
GI50 (OVCAR-8 ovarian): 17.4 µM
TGI (OVCAR-8 ovarian): 39.3 µM
GI50 (NCI-H522 lung): 16.7 µM
TGI (NCI-H522 lung): 33.9 µM
GI50 (OVCAR-3 ovarian): 0.817 µM
TGI (OVCAR-3 ovarian): 22 µM
GI50 (SF-295 CNS): 1.26 µM
TGI (SF-295 CNS): 15.4 µM
GI50 (UO-31 renal): 0.409 µM
TGI (UO-31 renal): 13.5 µM
GI50 (PC-3 prostate): 0.183 µM
TGI (PC-3 prostate): 20.1 µM
GI50 (OVCAR-4 ovarian): 16 µM
TGI (OVCAR-4 ovarian): 44.6 µM
GI50 (SN12C renal): 12 µM
TGI (SN12C renal): 27.5 µM
GI50 (NCI/ADR-RES ovarian): 15.1 µM
TGI (NCI/ADR-RES ovarian): 41.2 µM
GI50 (UACC-62 melanoma): 10.3 µM
TGI (UACC-62 melanoma): 22.7 µM
GI50 (LOX IMVI melanoma): 10.5 µM
TGI (LOX IMVI melanoma): 24 µM
GI50 (MDA-MB-231 breast): 14.3 µM
TGI (MDA-MB-231 breast): 32.3 µM
GI50 (MCF7 breast): 0.158 µM
TGI (MCF7 breast): 17.5 µM
GI50 (HL-60(TB) leukemia): 11.5 µM
TGI (HL-60(TB) leukemia): 30.2 µM
GI50 (UACC-257 melanoma): 13.2 µM
TGI (UACC-257 melanoma): 29.7 µM
GI50 (U251 CNS): 6.27 µM
TGI (U251 CNS): 21.5 µM
GI50 (RPMI-8226 leukemia): 10.9 µM
TGI (RPMI-8226 leukemia): 30.9 µM
GI50 (SR leukemia): 7.65 µM
TGI (SR leukemia): 31.2 µM
GI50 (HOP-92 NSCLC): 0.815 µM
TGI (HOP-92 NSCLC): 14.1 µM
GI50 (HT29 colon): 1.5 µM
TGI (HT29 colon): 25.7 µM
GI50 (KM12 colon): 10.5 µM
TGI (KM12 colon): 25.3 µM
GI50 (SF-539 CNS): 2.13 µM
TGI (SF-539 CNS): 13.7 µM
GI50 (A498 renal): 0.0734 µM
TGI (A498 renal): 0.642 µM
GI50 (SNB-75 CNS): 0.0922 µM
TGI (SNB-75 CNS): 5.21 µM
GI50 (OVCAR-5 ovarian): 12.5 µM
TGI (OVCAR-5 ovarian): 47 µM
GI50 (SK-OV-3 ovarian): 0.243 µM
TGI (SK-OV-3 ovarian): 12.7 µM
GI50 (HCT-116 colon): 10.2 µM
TGI (HCT-116 colon): 22.6 µM
GI50 (RXF 393 renal): 0.335 µM
TGI (RXF 393 renal): 4.13 µM
GI50 (MOLT-4 leukemia): 0.741 µM
TGI (MOLT-4 leukemia): 19.2 µM
GI50 (DU-145 prostate): 14.8 µM
TGI (DU-145 prostate): 33.1 µM
GI50 (TK-10 renal): 2.85 µM
TGI (TK-10 renal): 27.8 µM
GI50 (SK-MEL-2 melanoma): 15.2 µM
TGI (SK-MEL-2 melanoma): 31.5 µM
GI50 (T-47D breast): 0.0186 µM
TGI (T-47D breast): 15.8 µM
GI50 (K-562 leukemia): 13.7 µM
TGI (K-562 leukemia): 36.9 µM
GI50 (CCRF-CEM leukemia): 1.41 µM
TGI (CCRF-CEM leukemia): 44.4 µM
GI50 (MALME-3M melanoma): 1.19 µM
TGI (MALME-3M melanoma): 19.7 µM
GI50 (NCI-H226 lung): 12.7 µM
TGI (NCI-H226 lung): 32.5 µM
GI50 (HS 578T breast): 0.863 µM
TGI (HS 578T breast): 10 µM
GI50 (NCI-H460 lung): 2.15 µM
TGI (NCI-H460 lung): 19.4 µM
GI50 (SK-MEL-28 melanoma): 10.9 µM
TGI (SK-MEL-28 melanoma): 23.7 µM
GI50 (SNB-19 CNS): 11.3 µM
TGI (SNB-19 CNS): 25.8 µM
GI50 (EKVX NSCLC): 13.6 µM
TGI (EKVX NSCLC): 49.6 µM
GI50 (M14 melanoma): 14.3 µM
TGI (M14 melanoma): 28.6 µM
GI50 (SW-620 colon): 15 µM
TGI (SW-620 colon): 31.3 µM
GI50 (NCI-H23 lung): 16.4 µM
TGI (NCI-H23 lung): 51.8 µM
GI50 (786-0 renal): 1.23 µM
TGI (786-0 renal): 12.2 µM
GI50 (COLO 205 colon): 0.976 µM
TGI (COLO 205 colon): 19 µM
GI50 (ACHN renal): 5.97 µM
TGI (ACHN renal): 20.8 µM
GI50 (HCT-15 colon): 11.5 µM
TGI (HCT-15 colon): 33.1 µM

COC(=O)/C(=N\N)C(C(=O)C(=O)Nc1cccc([N+](=O)[O-])c1)c1nc2ccc(C(=O)c3ccccc3)cc2[nH]c1=O (centres undefined)
TGI (HCC-2998 colon): > 100 µM
TGI (BT-549 breast): > 100 µM
TGI (A549 NSCLC): > 100 µM
TGI (SF-268 CNS): > 100 µM
TGI (IGROV1 ovarian): > 100 µM
TGI (HOP-62 NSCLC): > 100 µM
TGI (MDA-MB-435): > 100 µM
TGI (CAKI-1 renal): > 100 µM
TGI (SK-MEL-5 melanoma): > 100 µM
TGI (OVCAR-8 ovarian): > 100 µM
TGI (NCI-H522 lung): > 100 µM
TGI (OVCAR-3 ovarian): > 100 µM
TGI (SF-295 CNS): > 100 µM
TGI (UO-31 renal): > 100 µM
TGI (PC-3 prostate): > 100 µM
TGI (OVCAR-4 ovarian): > 100 µM
TGI (SN12C renal): > 100 µM
TGI (NCI/ADR-RES ovarian): > 100 µM
TGI (MDA-N): > 100 µM
TGI (UACC-62 melanoma): > 100 µM
TGI (LOX IMVI melanoma): > 100 µM
TGI (MDA-MB-231 breast): > 100 µM
TGI (MCF7 breast): > 100 µM
TGI (HL-60(TB) leukemia): > 100 µM
TGI (UACC-257 melanoma): > 100 µM
TGI (U251 CNS): > 100 µM
TGI (HOP-92 NSCLC): > 100 µM
TGI (HT29 colon): > 100 µM
TGI (KM12 colon): > 100 µM
TGI (SF-539 CNS): > 100 µM
TGI (SNB-75 CNS): > 100 µM
TGI (OVCAR-5 ovarian): > 100 µM
TGI (SK-OV-3 ovarian): > 100 µM
TGI (HCT-116 colon): > 100 µM
TGI (RXF 393 renal): > 100 µM
TGI (MOLT-4 leukemia): 89.8 µM
TGI (DU-145 prostate): > 100 µM
TGI (TK-10 renal): > 100 µM
TGI (SK-MEL-2 melanoma): > 100 µM
TGI (CCRF-CEM leukemia): 79.4 µM
TGI (NCI-H226 lung): > 100 µM
TGI (HS 578T breast): > 100 µM
TGI (NCI-H460 lung): > 100 µM
TGI (SK-MEL-28 melanoma): > 100 µM
TGI (SNB-19 CNS): > 100 µM
TGI (EKVX NSCLC): > 100 µM
TGI (M14 melanoma): > 100 µM
TGI (SW-620 colon): > 100 µM
TGI (NCI-H23 lung): > 100 µM
TGI (786-0 renal): > 100 µM
TGI (COLO 205 colon): > 100 µM
TGI (ACHN renal): > 100 µM
TGI (HCT-15 colon): > 100 µM
